Results taken from US11319299B2, “Substituted carboxamides as inhibitors of WDR5 protein-protein binding” (PROPELLON THERAPEUTICS INC., priority 2016, dated 2022).

Each compound was assayed against WDR5 (Homo sapiens (Human), UniProt P61964) (assay: Surface Plasmon Resonance (SPR) assay, KD and residence time). Details: surface plasmon resonance (SPR) assay; read-out: WDR5 binding affinity (KD).
Format: binding
Method: (i) Surface Plasmon Resonance (SPR) Assay
The lifetime of a drug on its target is determined by two rate constants: the association rate constant (kon) and the dissociation rate constant (koff). In principle, the lifetime of the binary drug—target complex is thus extended by a rapid rate of drug binding and/or a slow rate of drug—target complex dissociation. The in vivo lifetime of a drug-target complex is most critically dependent on the value of the koff [Nat. Rev. Drug Discov. […] Drug Discov. […] Drug-target residence time is defined as the reciprocal of koff (τ=1/koff), making the residence time a parameter that is easily measured by routine in vitro assay methods.

Kd [µM] | Compound
0.00312 | C[C@@H]1CN(c2cc(F)c(-c3cnc(N4CCOCC4)nc3)cc2NC(=O)c2cc(O)cc(C(F)(F)F)c2)C[C@H](C)N1C [Example 280, N-[4-fluoro-5-(2-morpholin-4-ylpyrimidin-5-yl)-2-[(3R,5S)-3,4,5-trimethylpiperazin-1-yl]phenyl]-3-hydroxy-5-(trifluoromethyl)benzamide]
0.00101 | COc1cc(-c2cc(NC(=O)c3c[nH]c(=O)cc3C(F)(F)F)c(N3C[C@@H](C)N(C)[C@@H](C)C3)cc2F)cc(C(F)(F)F)n1 [Example 134, N-[4-fluoro-5-[2-methoxy-6-(trifluoromethyl)pyridin-4-yl]-2-[(3R,5S)-3,4,5-trimethylpiperazin-1-yl]phenyl]-6-oxo-4-(trifluoromethyl)-1H-pyridine-3-carboxamide]
0.00116 | C[C@@H]1CN(c2cc(F)c(-c3cnc(N4CCOC[C@H]4C)nc3)cc2NC(=O)c2c[nH]c(=O)cc2C(F)(F)F)CCN1C (stereo in doubt) [Example 337, N-[4-fluoro-2-[(3R)-3,4-dimethylpiperazin-1-yl]-5-[2-[(3R)-3-methylmorpholin-4-yl]pyrimidin-5-yl]phenyl]-6-oxo-4-(trifluoromethyl)-1H-pyridine-3-carboxamide]
0.00422 | CC1CN(c2cc(F)c(-c3cnc(N4CCOCC4)nc3)cc2NC(=O)c2ccc(F)cc2C(F)(F)F)CCN1C (stereo in doubt) [Example 298, 4-fluoro-N-[4-fluoro-5-(2-morpholin-4-ylpyrimidin-5-yl)-2-[(3R)-3,4-dimethylpiperazin-1-yl]phenyl]-2-(trifluoromethyl)benzamide]
0.00134 | C[C@@H]1CN(c2cc(F)c(-c3cnc(N4CCOCC4)c(Cl)c3)cc2NC(=O)c2c[nH]c(=O)cc2C(F)(F)F)C[C@H](C)N1C [Example 222, N-[5-(5-chloro-6-morpholin-4-ylpyridin-3-yl)-4-fluoro-2-[(3R,5S)-3,4,5-trimethylpiperazin-1-yl]phenyl]-6-oxo-4-(trifluoromethyl)-1H-pyridine-3-carboxamide]
0.122 | CN(C)[C@@H]1CCN(c2cc(F)c(-c3ccc(N4CCOCC4)cc3)cc2NC(=O)c2cc(Cl)cc(Cl)c2)C1 [Example 169, 3,5-dichloro-N-[4-fluoro-5-(4-morpholin-4-ylphenyl)-2-[(3R)-3-(dimethylamino)pyrrolidin-1-yl]phenyl]benzamide]
0.0109 | C[C@@H]1CN(c2cc(F)c(-c3cccc(OCC4CC4)c3)cc2NC(=O)c2c[nH]c(=O)cc2C(F)(F)F)C[C@H](C)N1C [Example 125, N-[5-[3-(cyclopropylmethoxy)phenyl]-4-fluoro-2-[(3R,5S)-3,4,5-trimethylpiperazin-1-yl]phenyl]-6-oxo-4-(trifluoromethyl)-1H-pyridine-3-carboxamide]
0.00453 | C[C@@H]1CN(c2cc(F)c(-c3cccc(CN(C)C4COC4)c3)cc2NC(=O)c2c[nH]c(=O)cc2C(F)(F)F)C[C@H](C)N1C [Example 118, N-[4-fluoro-5-[3-[[methyl(oxetan-3-yl)amino]methyl]phenyl]-2-[(3R,5S)-3,4,5-trimethylpiperazin-1-yl]phenyl]-6-oxo-4-(trifluoromethyl)-1H-pyridine-3-carboxamide]
0.0156 | C[C@@H]1CN(c2cc(F)c(-c3ccc(OCC4CC4)nc3)cc2NC(=O)c2ccc(F)cc2Cl)C[C@H](C)N1C [Example 251, 2-chloro-N-[5-[6-(cyclopropylmethoxy)pyridin-3-yl]-4-fluoro-2-[(3R,5S)-3,4,5-trimethylpiperazin-1-yl]phenyl]-4-fluorobenzamide]
0.000551 | C[C@@H]1CN(c2ncc(-c3cc(NC(=O)c4c[nH]c(=O)cc4C(F)(F)F)c(N4CCN(C)[C@@H](C)C4)cc3F)cn2)CCO1 [Example 340, N-[4-fluoro-2-[(3S)-3,4-dimethylpiperazin-1-yl]-5-[2-[(2R)-2-methylmorpholin-4-yl]pyrimidin-5-yl]phenyl]-6-oxo-4-(trifluoromethyl)-1H-pyridine-3-carboxamide]
0.00248 | C[C@@H]1CN(c2cc(F)c(C3=CCN(C(=O)OC(C)(C)C)C3)cc2NC(=O)c2c[nH]c(=O)cc2C(F)(F)F)C[C@H](C)N1C [Example 323, tert-butyl 3-[2-fluoro-5-[[6-oxo-4-(trifluoromethyl)-1H-pyridine-3-carbonyl]amino]-4-[(3R,5S)-3,4,5-trimethylpiperazin-1-yl]phenyl]-2,5-dihydropyrrole-1-carboxylate]
0.000168 | C[C@@H]1CN(c2cc(F)c(-c3cnc(N(C)C)nc3)cc2NC(=O)c2c[nH]c(=O)cc2C(F)(F)F)C[C@H](C)N1C [Example 103, N-[5-[2-(dimethylamino)pyrimidin-5-yl]-4-fluoro-2-[(3R,5S)-3,4,5-trimethylpiperazin-1-yl]phenyl]-6-oxo-4-(trifluoromethyl)-1H-pyridine-3-carboxamide]
0.00241 | COc1cc(-c2cc(NC(=O)c3c[nH]c(=O)cc3C(F)(F)F)c(N3C[C@@H](C)N(C)[C@@H](C)C3)cc2F)cnc1OC [Example 104, N-[5-(5,6-dimethoxypyridin-3-yl)-4-fluoro-2-[(3R,5S)-3,4,5-trimethylpiperazin-1-yl]phenyl]-6-oxo-4-(trifluoromethyl)-1H-pyridine-3-carboxamide]
> 0.2 | CC1CN(c2cc(F)c(-c3cnc(N4CCOCC4)nc3)cc2NC(=O)c2ccco2)CCN1C (stereo in doubt) [Example 79, N-[4-fluoro-5-(2-morpholin-4-ylpyrimidin-5-yl)-2-[(3R)-3,4-dimethylpiperazin-1-yl]phenyl]furan-2-carboxamide]

Same assay, conditions: surface plasmon resonance (SPR); read-out: WDR5 binding affinity (KD)

Kd [µM] | Compound
0.00542 | C[C@@H]1CN(c2cc(F)c(-c3csc(C(=O)NC4CCCCC4)n3)cc2NC(=O)c2cn(C)c(=O)cc2C(F)(F)F)C[C@H](C)N1C [Example 525, N-cyclohexyl-4-[2-fluoro-5-[[1-methyl-6-oxo-4-(trifluoromethyl)pyridine-3-carbonyl]amino]-4-[(3R,5S)-3,4,5-trimethylpiperazin-1-yl]phenyl]-1,3-thiazole-2-carboxamide]
0.00276 | C[C@@H]1CN(c2cc(F)c(-c3ccc(C(=O)NC4CCCCC4)c(F)c3)cc2NC(=O)c2c[nH]c(=O)cc2C(F)(F)F)C[C@H](C)N1C [Example 732, N-[5-[4-(cyclohexylcarbamoyl)-3-fluorophenyl]-4-fluoro-2-[(3R,5S)-3,4,5-trimethylpiperazin-1-yl]phenyl]-6-oxo-4-(trifluoromethyl)-1H-pyridine-3-carboxamide]
0.00246 | CC(C)OC(=O)N1CC=C(c2cc(NC(=O)c3ccc(F)cc3C(F)(F)F)c(N3CCN(C)C(C)C3)cc2F)CC1 (stereo in doubt) [Example 727, propan-2-yl 4-[2-fluoro-5-[[4-fluoro-2-(trifluoromethyl)benzoyl]amino]-4-[(3R)-3,4-dimethylpiperazin-1-yl]phenyl]-3,6-dihydro-2H-pyridine-1-carboxylate]
0.00106 | C[C@@H]1CN(c2cc(F)c(-c3cnc(N4CCC(C)(O)CC4)nc3)cc2NC(=O)c2c[nH]c(=O)cc2C(F)(F)F)C[C@H](C)N1C [Example 425, N-[4-fluoro-5-[2-(4-hydroxy-4-methylpiperidin-1-yl)pyrimidin-5-yl]-2-[(3R,5S)-3,4,5-trimethylpiperazin-1-yl]phenyl]-6-oxo-4-(trifluoromethyl)-1H-pyridine-3-carboxamide]
0.0034 | C[C@@H]1CN(c2cc(F)c(-c3ncc(C(=O)N(C)C4CCCCC4)s3)cc2NC(=O)c2c[nH]c(=O)cc2C(F)(F)F)C[C@H](C)N1C [Example 499, N-cyclohexyl-2-[2-fluoro-5-[[6-oxo-4-(trifluoromethyl)-1H-pyridine-3-carbonyl]amino]-4-[(3R,5S)-3,4,5-trimethylpiperazin-1-yl]phenyl]-N-methyl-1,3-thiazole-5-carboxamide]
0.000623 | CC1CN(c2ccc(-c3cc(NC(=O)c4c[nH]c(=O)cc4C(F)F)c(N4C[C@@H](C)N(C)[C@@H](C)C4)cc3F)cn2)CCO1 (stereo in doubt) [Example 510, 4-(difluoromethyl)-N-[4-fluoro-5-[6-[(2R)-2-methylmorpholin-4-yl]pyridin-3-yl]-2-[(3S,5R)-3,4,5-trimethylpiperazin-1-yl]phenyl]-6-oxo-1H-pyridine-3-carboxamide]
0.00191 | C[C@@H]1CN(c2cc(F)c(C3=CCN(C(=O)N4CCCC4)C3)cc2NC(=O)c2c[nH]c(=O)cc2C(F)(F)F)C[C@H](C)N1C [Example 441, N-[4-fluoro-5-[1-(pyrrolidine-1-carbonyl)-2,5-dihydropyrrol-3-yl]-2-[(3R,5S)-3,4,5-trimethylpiperazin-1-yl]phenyl]-6-oxo-4-(trifluoromethyl)-1H-pyridine-3-carboxamide]
0.00131 | C[C@@H]1CN(c2cc(F)c(-c3csc(C(=O)N(C)C4CCCCC4)n3)cc2NC(=O)c2c[nH]c(=O)cc2C(F)(F)F)C[C@H](C)N1C [Example 534, N-cyclohexyl-4-[2-fluoro-5-[[6-oxo-4-(trifluoromethyl)-1H-pyridine-3-carbonyl]amino]-4-[(3R,5S)-3,4,5-trimethylpiperazin-1-yl]phenyl]-N-methyl-1,3-thiazole-2-carboxamide]
13600 | C[C@@H]1CN(c2cc(F)c(-c3ccnc(N4CCOCC4)n3)cc2NC(=O)c2cn(C)c(=O)cc2C(F)F)C[C@H](C)N1C [Example 746, 4-(difluoromethyl)-N-[4-fluoro-5-(2-morpholin-4-ylpyrimidin-4-yl)-2-[(3R,5S)-3,4,5-trimethylpiperazin-1-yl]phenyl]-1-methyl-6-oxopyridine-3-carboxamide]
0.0053 | CC1CN(c2cc(F)c(-c3ccc(F)c(C(N)=O)c3)cc2NC(=O)c2ccc(F)cc2C(F)(F)F)CCN1C (stereo in doubt) [Example 554, 2-fluoro-5-[2-fluoro-5-[[4-fluoro-2-(trifluoromethyl)benzoyl]amino]-4-[(3R)-3,4-dimethylpiperazin-1-yl]phenyl]benzamide]
